ChEMBL document CHEMBL3885881, “DrugMatrix”

Species on record: Rattus norvegicus
Assay: DrugMatrix - Regimen: Daily Repeat
Type: toxicity, organism-based, Sprague-Dawley
Set-up: regimen Daily Repeat, gender Male, age 6-8 weeks
Details: in vivo, po, route oral GAVAGE, […]; for ABSOLUTE BASOPHIL / ABSOLUTE EOSINOPHIL / ABSOLUTE LYMPHOCYTE / ABSOLUTE MONOCYTE / ABSOLUTE SEGMENTED NEUTROPHIL / BASOPHIL / EOSINOPHIL / ERYTHROCYTE COUNT / HEMATOCRIT / HEMOGLOBIN / LEUKOCYTE COUNT / LYMPHOCYTE / MEAN CORPUSCULAR HEMOGLOBIN / MEAN CORPUSCULAR HEMOGLOBIN CONCENTRATION / MEAN CORPUSCULAR VOLUME / MONOCYTE / NEUTROPHIL / NUCLEATED RED BLOOD CELLS / PLATELET COUNT: tissue Blood; for ALANINE AMINOTRANSFERASE / ALBUMIN / ALKALINE PHOSPHATASE / ASPARTATE AMINOTRANSFERASE / BLOOD UREA NITROGEN / CARBON DIOXIDE / CHLORIDE / CHOLESTEROL / CREATINE PHOSPHOKINASE / CREATININE / GLUCOSE / LACTATE DEHYDROGENASE / LIPASE / PHOSPHORUS / POTASSIUM / SODIUM / TOTAL BILIRUBIN / TOTAL PROTEIN / URIC ACID: tissue Plasma
[1] = 100 mg/kg, 120 h, dose level Low, time 5 day
[2] = 448 mg/kg, 72 h, dose level High, time 3 day
[3] = 448 mg/kg, 120 h, dose level High, time 5 day

Which results are given for `CC(C)(Oc1ccc(Cl)cc1)C(=O)O` [CLOFIBRIC ACID]?
ABSOLUTE BASOPHIL [1]: 0 CELLS/uL; ABSOLUTE EOSINOPHIL [1]: 54.67 CELLS/uL; ABSOLUTE LYMPHOCYTE [1]: 12665.33 CELLS/uL; ABSOLUTE MONOCYTE [1]: 34.33 CELLS/uL; ABSOLUTE SEGMENTED NEUTROPHIL [1]: 1712.33 CELLS/uL; BASOPHIL [1]: 0%; EOSINOPHIL [1]: 0.33%; ERYTHROCYTE COUNT [1]: 5.75 x10E6/uL; HEMATOCRIT [1]: 35.5%; HEMOGLOBIN [1]: 14.03 G/DL; LEUKOCYTE COUNT [1]: 14.47 x10E3/uL; LYMPHOCYTE [1]: 87%; MEAN CORPUSCULAR HEMOGLOBIN [1]: 24.43 pg; MEAN CORPUSCULAR HEMOGLOBIN CONCENTRATION [1]: 39.53 G/DL; MEAN CORPUSCULAR VOLUME [1]: 61.77 fL; MONOCYTE [1]: 0.33%; NEUTROPHIL [1]: 12.33%; NUCLEATED RED BLOOD CELLS [1]: 0.33 /100WBC; PLATELET COUNT [1]: 1147.33 x10E3/uL; ALANINE AMINOTRANSFERASE [1]: 63.67 u/L; ALBUMIN [1]: 4.37 G/DL; ALKALINE PHOSPHATASE [1]: 342 u/L; ASPARTATE AMINOTRANSFERASE [1]: 93.33 u/L; BLOOD UREA NITROGEN [1]: 15 mg/dL; CARBON DIOXIDE [1]: 28 mmol/L; CHLORIDE [1]: 101.33 MEQ/L; CHOLESTEROL [1]: 50.67 mg/dL; CREATINE PHOSPHOKINASE [1]: 370.33 u/L; CREATININE [1]: 0.2 mg/dL; GLUCOSE [1]: 145.33 mg/dL; LACTATE DEHYDROGENASE [1]: 275.67 u/L; LIPASE [1]: 9.67 u/L; PHOSPHORUS [1]: 11.03 mg/dL; POTASSIUM [1]: 5.96 MEQ/L; SODIUM [1]: 142.3 MEQ/L; TOTAL BILIRUBIN [1]: 0.2 mg/dL; TOTAL PROTEIN [1]: 5.73 G/DL; URIC ACID [1]: 1.23 mg/dL; ABSOLUTE BASOPHIL [2]: 0 CELLS/uL; ABSOLUTE EOSINOPHIL [2]: 0 CELLS/uL; ABSOLUTE LYMPHOCYTE [2]: 10222.33 CELLS/uL; ABSOLUTE MONOCYTE [2]: 204.67 CELLS/uL; ABSOLUTE SEGMENTED NEUTROPHIL [2]: 1606.33 CELLS/uL; BASOPHIL [2]: 0%; EOSINOPHIL [2]: 0%; ERYTHROCYTE COUNT [2]: 5.53 x10E6/uL; HEMATOCRIT [2]: 33.9%; HEMOGLOBIN [2]: 13.1 G/DL; LEUKOCYTE COUNT [2]: 12.03 x10E3/uL; LYMPHOCYTE [2]: 85%; MEAN CORPUSCULAR HEMOGLOBIN [2]: 23.73 pg; MEAN CORPUSCULAR HEMOGLOBIN CONCENTRATION [2]: 38.63 G/DL; MEAN CORPUSCULAR VOLUME [2]: 61.37 fL; MONOCYTE [2]: 1.67%; NEUTROPHIL [2]: 13.33%; NUCLEATED RED BLOOD CELLS [2]: 0 /100WBC; PLATELET COUNT [2]: 1067.33 x10E3/uL; ALANINE AMINOTRANSFERASE [2]: 82.33 u/L; ALBUMIN [2]: 4.4 G/DL; ALKALINE PHOSPHATASE [2]: 525.33 u/L; ASPARTATE AMINOTRANSFERASE [2]: 118.33 u/L; BLOOD UREA NITROGEN [2]: 13.33 mg/dL; CARBON DIOXIDE [2]: 33 mmol/L; CHLORIDE [2]: 98.33 MEQ/L; CHOLESTEROL [2]: 39 mg/dL; CREATINE PHOSPHOKINASE [2]: 203.67 u/L; CREATININE [2]: 0.14 mg/dL; GLUCOSE [2]: 149.33 mg/dL; LACTATE DEHYDROGENASE [2]: 172.67 u/L; LIPASE [2]: 8 u/L; PHOSPHORUS [2]: 11.27 mg/dL; POTASSIUM [2]: 6.66 MEQ/L; SODIUM [2]: 140.57 MEQ/L; TOTAL BILIRUBIN [2]: 0.17 mg/dL; TOTAL PROTEIN [2]: 5.33 G/DL; URIC ACID [2]: 1.37 mg/dL; ABSOLUTE BASOPHIL [3]: 0 CELLS/uL; ABSOLUTE EOSINOPHIL [3]: 0 CELLS/uL; ABSOLUTE LYMPHOCYTE [3]: 14966.67 CELLS/uL; ABSOLUTE MONOCYTE [3]: 437.33 CELLS/uL; ABSOLUTE SEGMENTED NEUTROPHIL [3]: 2729.33 CELLS/uL; BASOPHIL [3]: 0%; EOSINOPHIL [3]: 0%; ERYTHROCYTE COUNT [3]: 5.64 x10E6/uL; HEMATOCRIT [3]: 35.03%; HEMOGLOBIN [3]: 13.4 G/DL; LEUKOCYTE COUNT [3]: 18.13 x10E3/uL; LYMPHOCYTE [3]: 82.67%; MEAN CORPUSCULAR HEMOGLOBIN [3]: 23.77 pg; MEAN CORPUSCULAR HEMOGLOBIN CONCENTRATION [3]: 38.27 G/DL; MEAN CORPUSCULAR VOLUME [3]: 62.17 fL; MONOCYTE [3]: 2.33%; NEUTROPHIL [3]: 15%; NUCLEATED RED BLOOD CELLS [3]: 0 /100WBC; PLATELET COUNT [3]: 1012.67 x10E3/uL; ALANINE AMINOTRANSFERASE [3]: 61 u/L; ALBUMIN [3]: 4.6 G/DL; ALKALINE PHOSPHATASE [3]: 409.33 u/L; ASPARTATE AMINOTRANSFERASE [3]: 90.67 u/L; BLOOD UREA NITROGEN [3]: 17.33 mg/dL; CARBON DIOXIDE [3]: 28.33 mmol/L; CHLORIDE [3]: 106.67 MEQ/L; CHOLESTEROL [3]: 46.33 mg/dL; CREATINE PHOSPHOKINASE [3]: 195.67 u/L; CREATININE [3]: 0.19 mg/dL; GLUCOSE [3]: 158 mg/dL; LACTATE DEHYDROGENASE [3]: 194.33 u/L; LIPASE [3]: 9.33 u/L; PHOSPHORUS [3]: 9.7 mg/dL; POTASSIUM [3]: 6.4 MEQ/L; SODIUM [3]: 149.4 MEQ/L; TOTAL BILIRUBIN [3]: 0.1 mg/dL; TOTAL PROTEIN [3]: 5.63 G/DL; URIC ACID [3]: 1.5 mg/dL
